Results from patent US20070205140A1, “Method of Removing Sulfides Including Hydrogen Sulfide and Mercaptan” (K - I CHEMICAL INDUSTRY CO., LTD., priority 2004, published 2007).

Experiments:
[1] = Test Example 1: removal of hydrogen sulfide from hexane, FPD gas chromatography; settings: for Test sample A Hydrogen sulfide concentration: 100 ppm hydrogen sulfide, 100 ppm compound; for effect of removing hydrogen sulfide (in words): summary of Table 1
Protocol: Two 200-ml four-neck flasks were provided. Hexane (100 ml) was placed in the flask equipped with a bubbling device. In the other flask, iron sulfide underwent a reaction with the dropwise addition of hydrochloric acid, resulting the generation of hydrogen sulfide. Then, hexane was subjected to bubbling with hydrogen sulfide that had been transferred via a tube. Thus, test samples at a hydrogen sulfide concentration of 100 ppm were prepared. The measurement of hydrogen sulfide concentration was carried out by FPD gas chromatography (using a flame photometric detector). Stock solution of BNPA, DBNE, and BNP (100 ppm each) were separately added to the test samples, followed by stirring for a given period of time. The hydrogen sulfide concentration of each sample was measured in a time-dependent manner.

[2] = Test Example 2: removal of methyl mercaptan gas by formulation in closed bag, detector tube; settings: for Methyl mercaptan gas concentration: 1 ml formulation, methyl mercaptan gas at 500 ppm; for effect of removing methyl mercaptan (in words): summary of Table 2
Protocol: A formulation containing BNPA was previously prepared in accordance with Formulation example 1. With the use of DBNE and BNP instead of BNPA, formulations containing DBNE and BNP, respectively, were prepared, in accordance with formulation example 1. Each formulation (1 ml) was dispensed into a glass petri dish covered with a plastic bag. Then, each plastic bag was closed after being filled with methyl mercaptan gas at 500 ppm. The methyl mercaptan gas was allowed to come into contact with the formulation for a given time. Thereafter, the methyl mercaptan gas concentration was measured using a detector tube.

[3] = Test Example 3: removal of hydrogen sulfide dissolved in water, methylene blue colorimetric method; settings: for removal of hydrogen sulfide dissolved in water (in words): summary of Table 3; for Residual hydrogen sulfide concentration: water, test compound 500 ppm, stirring for 10 minutes, ND = complete removal
Protocol: Distilled water was bubbled with hydrogen sulfide gas. Thus, a hydrogen sulfide-dissolved solution (5 mgS/l) was prepared. The solution was placed in separate beakers. Then, formulations that were prepared in accordance with Test example 2 were separately added thereto in a manner such that the concentration of each test compound became 500 ppm, followed by stirring for 10 minutes. Thereafter, the residual hydrogen sulfide concentration was measured. The measurement was carried out using “Pack Tests” (Kyoritsu Chemical-Check Lab., Corp.) in accordance with a methylene blue colorimetric method.

[4] = Test Example 4: removal of hydrogen sulfide gas by formulation in closed bag, detector tube; settings: for Hydrogen sulfide concentration: 1 ml formulation, 1 liter hydrogen sulfide gas at 500 ppm; for removal of hydrogen sulfide gas (in words): summary of Table 4
Protocol: A formulation containing BNPA was previously prepared in accordance with Formulation example 1. With the use of BNP instead of BNPA, a formulation containing BNP was prepared in accordance with formulation example 1.
Iron sulfide and hydrochloric acid were allowed to react with each other, resulting in the generation of hydrogen sulfide. Thus, hydrogen sulfide gas at a concentration of 500 ppm was prepared. Each formulation (1 ml) was placed in a glass petri dish covered with a plastic bag. Then, each plastic bag was closed after being filled with 1 liter of hydrogen sulfide gas. At 24 and 48 hours later, the hydrogen sulfide gas concentration was measured using a detector tube.

[5] = Test Example 5: removal of hydrogen sulfide dissolved in water, 30 minutes stirring, methylene blue colorimetric method; settings: for residual hydrogen sulfide (in words): summary of Table 5
Protocol: Distilled water was bubbled with a hydrogen sulfide gas. Thus, a solution containing dissolved hydrogen sulfide (5 mgS/l) was prepared. The solution was placed in separate beakers. Then, formulations that were prepared in accordance with Test example 4 were separately added thereto in a manner such that the concentration of each test compound became 500 ppm, followed by stirring for 30 minutes using a stirrer. Thereafter, the residual hydrogen sulfide concentration was measured. The measurement was carried out using “Pack Tests” (Kyoritsu Chemical-Check Lab., Corp.) in accordance with a methylene blue colorimetric method.

SMILES: O=[N+]([O-])C(Br)(CO)CO [BNP, 2-bromo-2-nitro-1,3-propanediol]
- Test sample A Hydrogen sulfide concentration ([1]; contact time 0 minutes): 100 ppm
- Test sample A Hydrogen sulfide concentration ([1]; contact time 10 minutes): 81 ppm
- Test sample A Hydrogen sulfide concentration ([1]; contact time 30 minutes): 77 ppm
- Test sample A Hydrogen sulfide concentration ([1]; contact time 60 minutes): 68 ppm
- effect of removing hydrogen sulfide (in words) [1]: the removal efficiency was poor
- Methyl mercaptan gas concentration ([2]; contact time 0 hours): 500 ppm
- Methyl mercaptan gas concentration ([2]; contact time 24 hours): 485 ppm
- Methyl mercaptan gas concentration ([2]; contact time 48 hours): 461 ppm
- effect of removing methyl mercaptan (in words) [2]: almost no effect of removing methyl mercaptan
- removal of hydrogen sulfide dissolved in water (in words) [3]: very low capacity for removing hydrogen sulfide
- Residual hydrogen sulfide concentration [3]: 18 mgS/l
- Hydrogen sulfide concentration ([4]; contact time 0 hours): 500 ppm
- Hydrogen sulfide concentration ([4]; contact time 24 hours): 480 ppm
- Hydrogen sulfide concentration ([4]; contact time 48 hours): 470 ppm
- removal of hydrogen sulfide gas (in words) [4]: complete removal was not achieved
- residual hydrogen sulfide (in words) [5]: residual hydrogen sulfide was observed
- Residual hydrogen sulfide concentration ([5]; water 5 mgS/l, test compound 500 ppm, stirring for 30 minutes, ND = no hydrogen sulfide observed): 1 mgS/l

SMILES: CC(=O)OCC(Br)(COC(C)=O)[N+](=O)[O-] [BNPA, 2-bromo-2-nitropropane-1,3-diyl diacetate]
- Test sample A Hydrogen sulfide concentration ([1]; contact time 0 minutes): 100 ppm
- Test sample A Hydrogen sulfide concentration ([1]; contact time 10 minutes): 38 ppm
- Test sample A Hydrogen sulfide concentration ([1]; contact time 30 minutes): 14 ppm
- Test sample A Hydrogen sulfide concentration ([1]; contact time 60 minutes): 2 ppm
- effect of removing hydrogen sulfide (in words) [1]: had an effect of removing hydrogen sulfide
- Methyl mercaptan gas concentration ([2]; contact time 0 hours): 500 ppm
- Methyl mercaptan gas concentration ([2]; contact time 24 hours): 283 ppm
- Methyl mercaptan gas concentration ([2]; contact time 48 hours): 0 ppm
- effect of removing methyl mercaptan (in words) [2]: complete removal of methyl mercaptan gas was achieved after 48 hours
- removal of hydrogen sulfide dissolved in water (in words) [3]: complete removal of hydrogen sulfide
- Hydrogen sulfide concentration ([4]; contact time 0 hours): 500 ppm
- Hydrogen sulfide concentration ([4]; contact time 24 hours): 210 ppm
- Hydrogen sulfide concentration ([4]; contact time 48 hours): 0 ppm
- removal of hydrogen sulfide gas (in words) [4]: complete removal of hydrogen sulfide was achieved after 48 hours
- residual hydrogen sulfide (in words) [5]: no hydrogen sulfide was observed

SMILES: O=[N+]([O-])C(Br)(Br)CO [DBNE, 2,2-dibromo-2-nitroethanol]
- Test sample A Hydrogen sulfide concentration ([1]; contact time 0 minutes): 100 ppm
- Test sample A Hydrogen sulfide concentration ([1]; contact time 10 minutes): 42 ppm
- Test sample A Hydrogen sulfide concentration ([1]; contact time 30 minutes): 25 ppm
- Test sample A Hydrogen sulfide concentration ([1]; contact time 60 minutes): 11 ppm
- effect of removing hydrogen sulfide (in words) [1]: had an effect of removing hydrogen sulfide
- Methyl mercaptan gas concentration ([2]; contact time 0 hours): 500 ppm
- Methyl mercaptan gas concentration ([2]; contact time 24 hours): 358 ppm
- Methyl mercaptan gas concentration ([2]; contact time 48 hours): 29 ppm
- effect of removing methyl mercaptan (in words) [2]: confirmed to have the effect of removing methyl mercaptan
- removal of hydrogen sulfide dissolved in water (in words) [3]: confirmed to have an effect of removing hydrogen sulfide
- Residual hydrogen sulfide concentration [3]: 5 mgS/l
